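Protocol summary: plate cells (96-well), add compound at 5 concentrations, incubate 48 h, interpolate endpoints linearly. GI50: concentration for 50% inhibition of growth.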 The source made the active and inactive calls. Rule as the data show it: active = GI50 up to about 1.1 µM and inactive = higher.
How the values were obtained:
Test in all cases: NCI tumour cell line growth inhibition, 48 h
[1] = tested on: EKVX
[2] = tested on: SK-MEL-5
[3] = tested on: U-251
[4] = tested on: NCI-H460
[5] = tested on: SF-268
[6] = tested on: UO-31
[7] = tested on: RXF 393
[8] = tested on: HCT-15
[9] = tested on: 786-0
[10] = tested on: HCC 2998
[11] = tested on: SNB-75
[12] = tested on: HL-60
[13] = tested on: ACHN
[14] = tested on: HCT-116
[15] = tested on: MOLT-4
[16] = tested on: A549
[17] = tested on: MCF7
[18] = tested on: DU-145
[19] = tested on: Hs-578T

Row | Structure (SMILES) | GI50 [1] | GI50 [2] | GI50 [3] | GI50 [4] | GI50 [5] | GI50 [6] | GI50 [7] | GI50 [8] | GI50 [9] | GI50 [10] | GI50 [11] | GI50 [12] | GI50 [13] | GI50 [14] | GI50 [15] | GI50 [16] | GI50 [17] | GI50 [18] | GI50 [19]
1 | O=C(/C=C/c1ccc(OCC(=O)N2CCN(c3ccccc3)CC2)cc1)c1ccccc1 | 34.7 µM (inactive) | 7.57 µM (inactive) | 7.14 µM (inactive) | > 46.1 µM (inactive) | 26.7 µM (inactive) | 15.2 µM (inactive) | 7.85 µM (inactive) | 7.5 µM | 14.6 µM (inactive) | 45.4 µM (inactive) | 17.9 µM (inactive) | 4.95 µM (inactive) | 19.7 µM (inactive) | 11.7 µM (inactive) | 3.05 µM (inactive) | 44.4 µM (inactive) |  |  | 
2 | Oc1c(-c2ccccc2)nc2ccccn12 | > 100 µM (inactive) | > 100 µM (inactive) | > 100 µM (inactive) | > 100 µM (inactive) | > 100 µM (inactive) | > 100 µM (inactive) | > 100 µM (inactive) |  | > 100 µM (inactive) | > 100 µM (inactive) | > 100 µM (inactive) | > 100 µM (inactive) | > 100 µM (inactive) | > 100 µM (inactive) | > 100 µM (inactive) | > 100 µM (inactive) |  |  | 
3 | O=C1O[C@@H](c2ccc3c(c2)OCO3)C2C(=O)O[C@@H](c3ccc4c(c3)OCO4)C12 (stereo partly specified) | > 100 µM (inactive) | > 100 µM (inactive) | > 100 µM (inactive) | > 100 µM (inactive) | > 100 µM (inactive) | > 100 µM (inactive) | > 100 µM (inactive) | > 100 µM | > 100 µM (inactive) | > 100 µM (inactive) | 83.6 µM (inactive) | > 100 µM (inactive) | > 100 µM (inactive) | > 100 µM (inactive) | > 100 µM (inactive) | > 100 µM (inactive) |  |  | 
4 | COC(=O)C1(Cc2ccccc2)Cc2ccccc2C1=O (stereo unspecified) | 30.3 µM (inactive) | 20 µM (inactive) | 27.7 µM (inactive) | 46 µM (inactive) | 70.8 µM (inactive) | 23.3 µM (inactive) |  | 37.2 µM | 60.5 µM (inactive) | 42.3 µM (inactive) | 42.7 µM (inactive) | 19.7 µM (inactive) | 36.6 µM (inactive) | 36.1 µM (inactive) | 25.6 µM (inactive) | 32.9 µM (inactive) | 42.1 µM (inactive) | 83.4 µM (inactive) | 61.1 µM (inactive)
5 | CCCCCCCCCCCCOC(=S)NCCCC | 18.3 µM (inactive) |  | 20.2 µM (inactive) | 24.4 µM (inactive) | 26.8 µM (inactive) | 3.37 µM (inactive) | 23.8 µM (inactive) | 19.5 µM | 24.6 µM (inactive) | 18 µM (inactive) | 30.3 µM (inactive) | 18.5 µM (inactive) | 22.4 µM (inactive) | 18.6 µM (inactive) | 15.9 µM (inactive) |  |  |  | 
6 | Oc1ccc(Br)cc1/C=N/c1ccc(/N=C/c2cc(Br)ccc2O)cc1 | > 100 µM (inactive) | > 100 µM (inactive) | > 100 µM (inactive) | > 100 µM (inactive) | > 100 µM (inactive) | > 100 µM (inactive) | > 100 µM (inactive) | > 100 µM | > 100 µM (inactive) | > 100 µM (inactive) | > 100 µM (inactive) | > 100 µM (inactive) | > 100 µM (inactive) | > 100 µM (inactive) | > 100 µM (inactive) | > 100 µM (inactive) |  |  | 
7 | COc1ccccc1C1C(Cl)C(=O)N1NC(=O)Cc1ccccc1 (stereo unspecified) | > 100 µM (inactive) | 61.9 µM (inactive) | > 100 µM (inactive) | > 100 µM (inactive) | > 100 µM (inactive) | 32.1 µM (inactive) | 53.1 µM (inactive) | 73.6 µM | > 100 µM (inactive) | 75.7 µM (inactive) | 31.7 µM (inactive) | 34.8 µM (inactive) | > 100 µM (inactive) | 62.8 µM (inactive) | 27.7 µM (inactive) | > 100 µM (inactive) |  |  | 
8 | CC1=C(/C=C/C(C)=C/C2CC(N(C)C)=CC(=O)O2)C(C)(C)CCC1 (stereo unspecified) | 14.4 µM (inactive) | 5.45 µM (inactive) | 14.6 µM (inactive) | 17.7 µM (inactive) | 21 µM (inactive) | 10.7 µM (inactive) | 14.9 µM (inactive) |  | 15.4 µM (inactive) | 13.6 µM (inactive) | 17.7 µM (inactive) | 1.44 µM (inactive) | 12.1 µM (inactive) | 12.9 µM (inactive) | 3.2 µM (inactive) | 9.75 µM (inactive) |  |  | 
9 | Nc1nc(-c2ccc(Cl)c([N+](=O)[O-])c2)cs1 | 94.8 µM (inactive) | > 100 µM (inactive) | 40.6 µM (inactive) | > 100 µM (inactive) | 86.5 µM (inactive) | 78.9 µM (inactive) | 29.3 µM (inactive) | > 100 µM | 59.4 µM (inactive) | > 100 µM (inactive) | 30.4 µM (inactive) | > 100 µM (inactive) | > 100 µM (inactive) | 58.7 µM (inactive) | 97.3 µM (inactive) | > 100 µM (inactive) |  |  | 
10 | CCOC(=O)C(C)c1cc(C2(C)OCCO2)c(C)o1 (stereo unspecified) | > 100 µM (inactive) | > 100 µM (inactive) | > 100 µM (inactive) | > 100 µM (inactive) | > 100 µM (inactive) | > 100 µM (inactive) | > 100 µM (inactive) | > 100 µM | > 100 µM (inactive) | > 100 µM (inactive) | 88.9 µM (inactive) | > 100 µM (inactive) | > 100 µM (inactive) | > 100 µM (inactive) | > 100 µM (inactive) | > 100 µM (inactive) |  |  | 
11 | COC(=O)C(CCC1(C)OCCO1)=[N+]=[N-] | > 100 µM (inactive) | > 100 µM (inactive) | > 100 µM (inactive) | > 100 µM (inactive) | > 100 µM (inactive) | > 100 µM (inactive) | > 100 µM (inactive) | > 100 µM | > 100 µM (inactive) | > 100 µM (inactive) | > 100 µM (inactive) | > 100 µM (inactive) | > 100 µM (inactive) | > 100 µM (inactive) | > 100 µM (inactive) | > 100 µM (inactive) |  |  | 
12 | CCOC(=O)C1=C(C)N(NC(=O)Nc2ccccc2)C(=O)C1=P(c1ccccc1)(c1ccccc1)c1ccccc1 | 54.3 µM (inactive) | 33.8 µM (inactive) | 33.9 µM (inactive) | 38.6 µM (inactive) | > 100 µM (inactive) | 74.6 µM (inactive) | 28 µM (inactive) | 27.5 µM | 63 µM (inactive) | 47.2 µM (inactive) | 38 µM (inactive) | 21.4 µM (inactive) | 36.6 µM (inactive) | 39.1 µM (inactive) | 18.8 µM (inactive) | 48.9 µM (inactive) |  |  | 
13 | Nc1ccc(/N=N/c2ccc(-c3ccc(/N=N/c4c(S(=O)(=O)O)cc5cc(S(=O)(=O)O)c(/N=N/c6ccc([N+](=O)[O-])cc6)c(N)c5c4O)cc3)cc2)c2cc(S(=O)(=O)O)ccc12 | > 100 µM (inactive) | > 100 µM (inactive) | > 100 µM (inactive) | > 100 µM (inactive) | > 100 µM (inactive) | > 100 µM (inactive) | > 100 µM (inactive) | > 100 µM | > 100 µM (inactive) | > 100 µM (inactive) | 78.9 µM (inactive) | > 100 µM (inactive) | > 100 µM (inactive) | > 100 µM (inactive) | > 100 µM (inactive) | > 100 µM (inactive) |  |  | 
